According to patent EP3227262B1, “SULFIDE ALKYL AND PYRIDYL REVERSE SULFONAMIDE COMPOUNDS FOR HBV TREATMENT” (Novira Therapeutics Inc., priority 2014, dated 2016):

tested on: HBV; test: Inhibition of HBV replication dot-blot assay in HBV-producing hepatoma cell line; format: cell-based; details: Hepatitis B virus, 144 h; activity in Dot-Blot assay; HepG2-2.2.15 cells; reduction in HBV DNA levels, six days
Experimental: Compounds active in the HBV assembly assay are tested for their activity and toxicity in cellular assay. In the first anti-viral assay, the ability of compounds to inhibit HBV replication in an HBV-producing hepatoma cell line using the dot-blot method is evaluated.
(§1) Briefly, confluent monolayers of HepG2-2.2.15 cells are incubated with complete medium containing various concentrations of a test compound. Three days later, the culture medium is replaced with fresh medium containing the appropriately diluted test compound. Six days following the initial administration of the test compound, the cell culture supernatant is collected, and cell lysis is performed. The samples are applied onto Nylos membranes and DNA is immobilized to the membrane by UV cross-linking. After pre-hybridization, the HBV probe is added and the hybridization is performed overnight. The membranes are exposed to the KODAK films; antiviral activity is calculated from the reduction in HBV DNA levels (EC50). The EC50 for antiviral activity is calculated from the dose response curves of active compounds. Assay performance over time is monitored by the use of the standard positive control compounds ETV, BAY 41-4109, and HAP-1.
Selected compounds are tested for their activity and toxicity in cellular assay. In the first anti-viral assay, the ability of compounds to inhibit HBV replication in an HBV-producing hepatoma cell line using the dot-blot method is evaluated.
as §1, with “Confluent monolayers” for “Briefly, confluent monolayers”, “lysis was” for “lysis is”

| Compound | EC50 |
| --- | --- |
| O=C(Nc1ccc(F)c(Cl)c1)c1cccc(SC2CCC(O)CC2)c1 (mixture of isomers) [Compound 34, (cis/trans)-N-(3-Chloro-4-fluorophenyl)-3-((4-hydroxycyclohexyl)thio)benzamide] | < 10 µM |
| O=C(Nc1ccc(F)c(Cl)c1)c1ccc(F)c(SC2CC(C(=O)O)C2)c1 (mixture of isomers) [Compound 58, (cis/trans)-3-((5-((3-Chloro-4-fluorophenyl)carbamoyl)-2-fluorophenyl)thio)cyclobutanecarboxylic acid] | < 10 µM |
| O=C(Nc1ccc(F)c(F)c1)c1ccc(F)c(SC2CC(C(=O)O)C2)c1 (mixture of isomers) [Compound 59, (cis/trans)-3-((5-((3,4-Difluorophenyl)carbamoyl)-2-fluorophenyl)thio)cyclobutanecarboxylic acid] | < 10 µM |
| O=C(Nc1ccc(F)c(Cl)c1)c1ccc(F)c(SC2CCC(C(=O)O)CC2)c1 (mixture of isomers) [Compound 61, (cis/trans)-4-((5-((3-Chloro-4-fluorophenyl)carbamoyl)-2-fluorophenyl)thio)cyclohexanecarboxylic acid] | < 10 µM |
| COc1ccc(C(=O)Nc2ccc(F)c(Cl)c2)cc1SC1CCC(O)CC1 (mixture of isomers) [Compound 70, (cis/trans)-N-(3-Chloro-4-fluorophenyl)-3-((4-hydroxycyclohexyl)thio)-4-methoxybenzamide] | < 10 µM |
| O=C(Nc1ccc(F)c(Cl)c1)c1ccc(Cl)c(SC2CCC(O)CC2)c1 (mixture of isomers) [Compound 75, (cis/trans)-4-Chloro-N-(3-chloro-4-fluorophenyl)-3-((4-hydroxycyclohexyl)thio)benzamide] | < 10 µM |
| Cc1ccc(C(=O)Nc2cc(F)c(F)c(F)c2)cc1SC1CCC(O)CC1 (mixture of isomers) [Compound 77, (cis/trans)-3-((4-Hydroxycyclohexyl)thio)-4-methyl-N-(3,4,5-trifluorophenyl)benzamide] | < 10 µM |
| O=C(Nc1cc(F)c(F)c(F)c1)c1ccc(Cl)c(SC2CCC(O)CC2)c1 (mixture of isomers) [Compound 81, (cis/trans)-4-Chloro-3-((4-hydroxycyclohexyl)thio)-N-(3,4,5-trifluorophenyl)benzamide] | < 10 µM |
| COc1ccc(C(=O)Nc2cc(F)c(F)c(F)c2)cc1SC1CCC(O)CC1 (mixture of isomers) [Compound 84, (cis/trans)-3-((4-Hydroxycyclohexyl)thio)-4-methoxy-N-(3,4,5-trifluorophenyl)benzamide] | < 10 µM |
| O=C(Nc1ccc(F)c(F)c1)c1ccc(Cl)c(SC2CCC(O)CC2)c1 (mixture of isomers) [Compound 87, (cis/trans)-4-Chloro-N-(3,4-difluorophenyl)-3-((4-hydroxycyclohexyl)thio)benzamide] | < 10 µM |
| COc1ccc(C(=O)Nc2ccc(F)c(F)c2)cc1SC1CCC(O)CC1 (mixture of isomers) [Compound 89, (cis/trans)-N-(3,4-Difluorophenyl)-3-((4-hydroxycyclohexyl)thio)-4-methoxybenzamide] | < 10 µM |
| N#Cc1ccc(C(=O)Nc2ccc(F)c(F)c2)cc1SC1CCC(O)CC1 (mixture of isomers) [Compound 93, (cis/trans)-4-Cyano-N-(3,4-difluorophenyl)-3-((4-hydroxycyclohexyl)thio)benzamide] | < 10 µM |
| N#Cc1ccc(C(=O)Nc2ccc(F)c(Cl)c2)cc1SC1CCC(O)CC1 (mixture of isomers) [Compound 95, (cis/trans)-N-(3-Chloro-4-fluorophenyl)-4-cyano-3-((4-hydroxycyclohexyl)thio)benzamide] | < 10 µM |
| CN(C)C(=O)C1CCC(Sc2cc(C(=O)Nc3cc(F)c(F)c(F)c3)ccc2F)CC1 (mixture of isomers) [Compound 103, (cis/trans)-3-((4-(Dimethylcarbamoyl)cyclohexyl)thio)-4-fluoro-N-(3,4,5-trifluorophenyl)benzamide] | < 10 µM |
| O=C(Nc1cc(F)c(F)c(F)c1)c1ccc(F)c(SC2CCC(C(=O)N3CCCCC3)CC2)c1 (mixture of isomers) [Compound 104, (cis/trans)-4-Fluoro-3-((4-(piperidine-1-carbonyl)cyclohexyl)thio)-N-(3,4,5-trifluorophenyl)benzamide] | < 10 µM |
| O=C(O)CC1CCC(Sc2cc(C(=O)Nc3ccc(F)c(Cl)c3)ccc2F)CC1 (mixture of isomers) [Compound 106, (cis/trans)-2-(4-((5-((3-Chloro-4-fluorophenyl)carbamoyl)-2-fluorophenyl)thio)cyclohexyl)acetic acid] | < 10 µM |

| Compound | EC50 |
| --- | --- |
| O=C(O)CC1CCC(Sc2cc(C(=O)Nc3cc(F)c(F)c(F)c3)ccc2F)CC1 (mixture of isomers) [Compound 107, (cis/trans)-2-(4-((5-((3,4,5-trifluorophenyl)carbamoyl)-2-fluorophenyl)thio)cyclohexyl)acetic acid] | < 10 µM |
| O=C(Nc1cc(F)c(F)c(F)c1)c1ccc(F)c(SC2CCC(C(=O)N3CCNCC3)CC2)c1 (mixture of isomers) [Compound 108, (cis/trans)-4-Fluoro-3-((4-(piperazine-1-carbonyl)cyclohexyl)thio)-N-(3,4,5-trifluorophenyl)benzamide] | < 10 µM |
| O=C(Nc1ccc(F)c(Cl)c1)c1ccc(F)c(SCC2CCC(C(=O)O)CC2)c1 (mixture of isomers) [Compound 109, (cis/trans)-4-(((5-((3-Chloro-4-fluorophenyl)carbamoyl)-2-fluorophenyl)thio)methyl)cyclohexanecarboxylic acid] | < 10 µM |
| O=C(Nc1cc(F)c(F)c(F)c1)c1ccc(F)c(SCC2CCC(C(=O)O)CC2)c1 (mixture of isomers) [Compound 110, (cis/trans)-4-(((5-((3,4,5-trifluorophenyl)carbamoyl)-2-fluorophenyl)thio)methyl)cyclohexanecarboxylic acid] | < 10 µM |
| O=C1CCCCC(Sc2cc(C(=O)Nc3cc(F)c(F)c(F)c3)ccc2F)C1 (racemic) [Compound 12, (±)-4-Fluoro-3-((3-oxocydoheptyl)thio)-N-(3,4,5-trifluorophenyl)benzamide] | < 10 µM |
| O=C1CCCCC(Sc2cc(C(=O)Nc3ccc(F)c(Cl)c3)ccc2F)C1 (racemic) [Compound 13, (±)-N-(3-Chloro-4-fluorophenyl)-4-fluoro-3-((3-oxocycloheptyl)thio)benzamide] | < 10 µM |
| O=C(Nc1cc(F)c(F)c(F)c1)c1ccc(F)c(S[C@H]2CCCC[C@@H](O)C2)c1 (racemic) [Compound 14A, (±)-4-Fluoro-3-(((1S,3R)-3-hydroxycycloheptyl)thio)-N-(3,4,5-trifluorophenyl)benzamide] | < 10 µM |
| O=C(Nc1cc(F)c(F)c(F)c1)c1ccc(F)c(S[C@@H]2CCCC[C@@H](O)C2)c1 (racemic) [Compound 14B, (±)-4-Fluoro-3-(((1R,3R)-3-hydroxycycloheptyl)thio)-N-(3,4,5-trifluorophenyl)benzamide] | < 10 µM |
| O=C(Nc1cc(F)c(F)c(F)c1)c1ccc(F)c(SC2CCCCC(F)C2)c1 (racemic) [Compound 15, (±)-4-Fluoro-3-((3-fluorocycloheptyl)thio)-N-(3,4,5-trifluorophenyl)benzamide] | < 10 µM |
| O=C1CCCC(Sc2cc(C(=O)Nc3ccc(F)c(Cl)c3)ccc2F)C1 (racemic) [Compound 20, (±)N-(3-Chloro-4-fluorophenyl)-4-fluoro-3-((3-oxocyclohexyl)thio)benzamide] | < 10 µM |
| O=C(Nc1ccc(F)c(Cl)c1)c1ccc(F)c(S[C@@H]2CCC[C@@H](O)C2)c1 (racemic) [Compound 21, (±)-N-(3-Chloro-4-fluorophenyl)-4-fluoro-3-(((1R,3R)-3-hydroxycyclohexyl)thio)benzamide] | < 10 µM |
| O=C1CCC(Sc2cc(C(=O)Nc3ccc(F)c(Cl)c3)ccc2F)C1 (racemic) [Compound 22, (±)-N-(3-Chloro-4-fluorophenyl)-4-fluoro-3-((3-oxocyclopentyl)thio)benzamide] | < 10 µM |
| O=C(Nc1ccc(F)c(Cl)c1)c1ccc(F)c(S[C@H]2CC[C@H](O)C2)c1 (racemic) [Compound 25, (±)-N-(3-Chloro-4-fluorophenyl)-4-fluoro-3-(((1S,3S)-3-hydroxycyclopentyl)thio)benzamide] | < 10 µM |
| O=C(Nc1ccc(F)c(Cl)c1)c1ccc(F)c(SCC2CCOC2)c1 (racemic) [Compound 46, (±)-N-(3-Chloro-4-fluorophenyl)-4-fluoro-3-(((tetrahydrofuran-3-yl)methyl)thio)benzamide] | < 10 µM |
| O=C(Nc1ccc(F)c(Cl)c1)c1ccc(F)c(SC2CCCOC2)c1 (racemic) [Compound 64, (±)-N-(3-Chloro-4-fluorophenyl)-4-fluoro-3-((tetrahydro-2H-pyran-3-yl)thio)benzamide] | < 10 µM |
